Laboratory results from patent US6086880A, “Rotavirus peptide compositions and methods of use” (The University of Saskatchewan, priority 1993, dated 2000).
No end group written: not given here.

What was measured:
[1] = test system: Monoclonal antibody 11D10-4; experiment: ELISA reactivity of synthetic peptides with monoclonal antibody 11D10-4; format: binding; conditions: reciprocal of the dilution giving a 50% end point
Description: (§1) The reactivity and specificity of the synthetic peptides were determined by ELISA using either anti-VP7 monospecific VP7 serum or monoclonal antibodies specific for the various regions of VP7 and by adsorption blocking assays. […] As shown in the table, while all of the peptides were immunoreactive with the antiserum, only the peptides representing positions 247-259 and 275-295 were specifically immunoreactive with monoclonals directed to particular determinants.
(§2) ^a Antibody titers were determined by ELISA and are expressed as the
(§3) reciprocal of the dilution giving a 50% end point.

[2] = test system: Monoclonal antibody 10D207; experiment: ELISA reactivity of synthetic peptides with monoclonal antibody 10D207; format: binding; conditions: reciprocal of the dilution giving a 50% end point
Description: as §1, §2, §3

[3] = test system: Monoclonal antibody 11D12-6; experiment: ELISA reactivity of synthetic peptides with monoclonal antibody 11D12-6; format: binding; conditions: reciprocal of the dilution giving a 50% end point
Description: as §1, §2, §3

[4] = test system: Monospecific anti-glycoprotein (VP7) serum; experiment: ELISA reactivity of synthetic peptides with monospecific anti-VP7 serum; format: binding; conditions: reciprocal of the dilution giving a 50% end point
Description: as §1, §2, §3

[5] = test system: Monoclonal antibody 4B5-5; experiment: ELISA reactivity of synthetic peptides with monoclonal antibody 4B5-5; format: binding; conditions: reciprocal of the dilution giving a 50% end point
Description: as §1, §2, §3

VP6 45 kd capsid protein = experiment: Binding of 232-255 peptide to VP6 of purified virus (laddering on polyacrylamide gel electrophoresis)
From the text: Laddering occurred both at the VP6 monomeric molecular weight of 45 kd and at the aggregate molecular weights of 90 kd and 135 kd regions. The increment in the ladder steps matched the MW of the 232-255 peptide. Trypsin treatment of the virus/peptide complex reduced the ladder to a virus profile identical with that of the trypsin-treated virus. The ladder could be detected with antisera produced against the synthetic peptide.

[6] = test system: infectious virus on MA104 cells; experiment: Plaque reduction by 232-255 peptide mixed with infectious virus on MA104 cells; format: cell-based; conditions: 100 pfu virus with 100 μg, 200 μg and 300 μg peptide
Description: In a protocol similar to a standard plaque reduction assay, MA104 cells were treated with 100 pfu of the virus in the absence of and in the presence of 100 μg, 200 μg and 300 μg of the 232-255 peptide.

BRV strain C486 = experiment: Prophylactic oral 232-255 peptide in neonatal mice before challenge; format: in vivo; design: key to Diarrheal Score: 0: no sign of diarrhea in live mice, or on necropsy; +: no external signs of diarrhea but semi-liquid colon contents at autopsy; ++: fluid was apparent on palpation of the abdomen and the colon was filled with liquid feces and gas; +++: the external anal region was soiled with feces and intestinal fluid was present on palpation; ++++: liquid feces were present around the anal region and on palpation of the abdomen intestinal fluid was present and oozed from the anus; severe dehydration, internal liquid content in colon and caecum and distention due to accumulation of gas; conditions: for Diarrheal Score: about one hour before 10^4 pfu; for Virus Titre: mouse intestines; for Plasma D-Xylose: no challenge: 119
Description: The 232-255 peptide synthesized in Example 7 was diluted serially in Eagle's Minimal Essential Medium. The peptide solutions of various dilutions were administered in 100 μl dosages to neonatal mice by oral administration. The pups were born of rotavirus-free strain CD-1 dams and administration was at 7 days of age (when the pups weigh about 4 g). Approximately one hour later the mice were challenged with 10^4 pfu of BRV strain C486. Clinical protection was scored as described in Example 6. Diarrhea was scored clinically as well as on necropsy, and plasma D-xylose was determined by administering 100 μl of 5% w/v D-xylose solution, sacrificing the mice two hours later, collecting the blood and determining plasma D-xylose concentration as described above. Virus titers were determined in the mouse intestines by suspending in MEM and homogenizing for virus titration. Mice which received no challenge had plasma D-xylose levels of 119 μg/100 μl and zero viral titers.

trypsin = experiment: Trypsin susceptibility and competition with intact VP4 for trypsin; format: biochemical; conditions: for cleavage of VP4 by trypsin in presence of peptide: FIG. 8
Description: Susceptibility of the synthetic peptide to trypsin was confirmed by reaction with trypsin followed by electrophoresis. […] It was also established that the peptide could compete with intact VP4 for the enzyme. This was determined by measuring the ability of increasing concentrations of the synthetic peptide to reduce the amount of VP4 cleaved into the two products of molecular weight 60 kd and 28 kd.

[7] = test system: bovine rotavirus isolate C486; experiment: 50% plaque reduction assay on sera of mice immunized with KLH-conjugated VP7 peptides; format: in vivo, CD-1 mice; conditions: sera of mice given KLH-conjugated peptides; FIG. 7
Description: The sera obtained in Example 3 were tested for their ability to neutralize the infectivity of the bovine rotavirus isolate C486 using a standard 50% plaque reduction assay. In this assay, virus dilutions representing 30-50 PFU were mixed 1:1 with various dilutions of antibody and incubated for 1 hour at 37° C. Virus attachment to MA104 monolayers was allowed to proceed at 37° C. for 2 hours before the virus inoculum was removed; the cells were washed with MEM and then overlaid with 1.6% Bacto-agar (Difco) diluted in MEM and supple-mented with 5 μg of pancreatin per ml, 0.7% of a 1:1000 neutral red stock solution, and 0.1% DEAE-dextran. Plaques appeared after 5 to 6 days of incubation at 37° C.

[8] = test system: virus attachment to MA104 cells; experiment: Adsorption blocking assay: inhibition of attachment of virus to MA104 cells; format: cell-based; conditions: FIG. 5
Description: as §1

YQQTDEANK [p174-183]
Antibody titer (ELISA), monoclonal antibody 11D10-4 with synthetic peptide [1]: 10 | Antibody titer (ELISA), monoclonal antibody 10D207 with synthetic peptide [2]: 10 | Antibody titer (ELISA), monoclonal antibody 11D12-6 with synthetic peptide [3]: 10 | Antibody titer (ELISA), monospecific anti-glycoprotein (VP7) serum with synthetic peptide [4]: 2,500 | Antibody titer (ELISA), monoclonal antibody 4B5-5 with synthetic peptide [5]: 50

NIAPASIVSRNIVYTRAQPNDIA [Peptide 232-255]
laddering of VP6 on polyacrylamide gel electrophoresis (VP6 45 kd capsid protein; 25 μg peptide with 2 μg purified virus): laddering was not apparent | laddering of VP6 on polyacrylamide gel electrophoresis (VP6 45 kd capsid protein; 100 μg peptide with 2 μg purified virus, 30 minutes at 37° C.): showed a laddering effect | plaque reduction [6]: capable of plaque reduction in a dose-dependent manner | Diarrheal Score (BRV strain C486; 100 μg peptide oral): +++ | Virus Titre (BRV strain C486; 100 μg peptide oral): 1.2 × 10^3 PFU/ml | Plasma D-Xylose (BRV strain C486; 100 μg peptide oral): 92 μg/100 μl | Diarrheal Score (BRV strain C486; 250 μg peptide oral): ++ | Virus Titre (BRV strain C486; 250 μg peptide oral): 4.0 × 10^2 PFU/ml | Plasma D-Xylose (BRV strain C486; 250 μg peptide oral): 70 μg/100 μl | Diarrheal Score (BRV strain C486; 500 μg peptide oral): 0 | Virus Titre (BRV strain C486; 500 μg peptide oral): 0 PFU/ml | Plasma D-Xylose (BRV strain C486; 500 μg peptide oral): 101 μg/100 μl | Diarrheal Score (BRV strain C486; 1000 μg peptide oral): 0 | Virus Titre (BRV strain C486; 1000 μg peptide oral): 0 PFU/ml | Plasma D-Xylose (BRV strain C486; 1000 μg peptide oral): 112 μg/100 μl | cleavage of VP4 by trypsin in presence of peptide (trypsin; 25 μg (232-255)/25 μg VP4): complete cleavage of VP4 | susceptibility of the peptide to trypsin (trypsin; reaction with trypsin followed by electrophoresis): cleaved by trypsin in a dose-dependent manner | cleavage of VP4 by trypsin in presence of peptide (trypsin; synthetic peptide increased to 200 μg): intact VP4 is evident

RNCKKLGPRENVA [p247-259]
Antibody titer (ELISA), monoclonal antibody 11D10-4 with synthetic peptide [1]: 4,000 | Antibody titer (ELISA), monoclonal antibody 10D207 with synthetic peptide [2]: 20 | Antibody titer (ELISA), monoclonal antibody 11D12-6 with synthetic peptide [3]: 100 | virus-neutralizing antibodies induced (50% plaque reduction assay) [7]: induced virus-neutralizing antibodies | Antibody titer (ELISA), monospecific anti-glycoprotein (VP7) serum with synthetic peptide [4]: 1,000 | Antibody titer (ELISA), monoclonal antibody 4B5-5 with synthetic peptide [5]: 5,000 | ability to inhibit attachment of virus to MA104 cells [8]: able to block virus attachment
